In patent publication US20170089921A1, “EXPRESSION OF VOLTAGE-GATED ION CHANNELS IN CILIATES” (priority 2014, published 2017):
No end group written: not given here.

Assays:
Nav1.8 = Nav1.8 (Homo sapiens, UniProt Q9Y5Y9); type: biochemical
Kv1.3 [1] = target: T1, Kv1.3 (Homo sapiens, UniProt P22001); test: Fluorescent toxin labeling of fixed Kv1.3 expressing Tetrahymena cells (confocal microscopy); type: binding; conditions: 10 nM, 30 minutes at RT
T1 construct: expressed in transfected cells; host or cells: Tetrahymena thermophila (transformed, CdCl2-induced, paraformaldehyde-fixed)
T1 sequence (P22001 whole entry): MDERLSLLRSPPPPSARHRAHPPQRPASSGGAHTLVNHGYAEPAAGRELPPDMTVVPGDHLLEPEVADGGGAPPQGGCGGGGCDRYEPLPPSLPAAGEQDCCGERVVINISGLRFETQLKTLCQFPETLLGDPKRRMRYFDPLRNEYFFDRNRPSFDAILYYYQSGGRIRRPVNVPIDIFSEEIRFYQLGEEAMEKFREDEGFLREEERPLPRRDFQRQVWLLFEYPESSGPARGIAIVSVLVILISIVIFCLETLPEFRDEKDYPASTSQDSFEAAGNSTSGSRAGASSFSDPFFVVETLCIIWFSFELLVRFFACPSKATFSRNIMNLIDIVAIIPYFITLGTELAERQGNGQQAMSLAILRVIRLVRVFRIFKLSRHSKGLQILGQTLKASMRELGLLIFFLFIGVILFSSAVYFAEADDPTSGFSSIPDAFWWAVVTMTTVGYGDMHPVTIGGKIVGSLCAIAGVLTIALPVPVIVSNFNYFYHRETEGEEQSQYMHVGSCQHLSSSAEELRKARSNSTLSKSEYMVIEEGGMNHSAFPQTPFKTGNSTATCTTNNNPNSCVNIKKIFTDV

[2] = system: Wild-type (WT) Tetrahymena cells; test: Fluorescent toxin labeling of fixed wild-type control Tetrahymena cells; type: binding, Tetrahymena thermophila; conditions: 10 nM, 30 minutes at RT
Kv1.3 [3] = target: T1, Kv1.3; test: Competition of ShK-TAMRA labeling of Kv1.3 expressing cells by non-labeled toxins; type: binding; conditions: 100 nM (saturating) toxin co-incubated with 10 nM ShK-TAMRA

Chain of Nav1.8 (Q9Y5Y9 whole entry): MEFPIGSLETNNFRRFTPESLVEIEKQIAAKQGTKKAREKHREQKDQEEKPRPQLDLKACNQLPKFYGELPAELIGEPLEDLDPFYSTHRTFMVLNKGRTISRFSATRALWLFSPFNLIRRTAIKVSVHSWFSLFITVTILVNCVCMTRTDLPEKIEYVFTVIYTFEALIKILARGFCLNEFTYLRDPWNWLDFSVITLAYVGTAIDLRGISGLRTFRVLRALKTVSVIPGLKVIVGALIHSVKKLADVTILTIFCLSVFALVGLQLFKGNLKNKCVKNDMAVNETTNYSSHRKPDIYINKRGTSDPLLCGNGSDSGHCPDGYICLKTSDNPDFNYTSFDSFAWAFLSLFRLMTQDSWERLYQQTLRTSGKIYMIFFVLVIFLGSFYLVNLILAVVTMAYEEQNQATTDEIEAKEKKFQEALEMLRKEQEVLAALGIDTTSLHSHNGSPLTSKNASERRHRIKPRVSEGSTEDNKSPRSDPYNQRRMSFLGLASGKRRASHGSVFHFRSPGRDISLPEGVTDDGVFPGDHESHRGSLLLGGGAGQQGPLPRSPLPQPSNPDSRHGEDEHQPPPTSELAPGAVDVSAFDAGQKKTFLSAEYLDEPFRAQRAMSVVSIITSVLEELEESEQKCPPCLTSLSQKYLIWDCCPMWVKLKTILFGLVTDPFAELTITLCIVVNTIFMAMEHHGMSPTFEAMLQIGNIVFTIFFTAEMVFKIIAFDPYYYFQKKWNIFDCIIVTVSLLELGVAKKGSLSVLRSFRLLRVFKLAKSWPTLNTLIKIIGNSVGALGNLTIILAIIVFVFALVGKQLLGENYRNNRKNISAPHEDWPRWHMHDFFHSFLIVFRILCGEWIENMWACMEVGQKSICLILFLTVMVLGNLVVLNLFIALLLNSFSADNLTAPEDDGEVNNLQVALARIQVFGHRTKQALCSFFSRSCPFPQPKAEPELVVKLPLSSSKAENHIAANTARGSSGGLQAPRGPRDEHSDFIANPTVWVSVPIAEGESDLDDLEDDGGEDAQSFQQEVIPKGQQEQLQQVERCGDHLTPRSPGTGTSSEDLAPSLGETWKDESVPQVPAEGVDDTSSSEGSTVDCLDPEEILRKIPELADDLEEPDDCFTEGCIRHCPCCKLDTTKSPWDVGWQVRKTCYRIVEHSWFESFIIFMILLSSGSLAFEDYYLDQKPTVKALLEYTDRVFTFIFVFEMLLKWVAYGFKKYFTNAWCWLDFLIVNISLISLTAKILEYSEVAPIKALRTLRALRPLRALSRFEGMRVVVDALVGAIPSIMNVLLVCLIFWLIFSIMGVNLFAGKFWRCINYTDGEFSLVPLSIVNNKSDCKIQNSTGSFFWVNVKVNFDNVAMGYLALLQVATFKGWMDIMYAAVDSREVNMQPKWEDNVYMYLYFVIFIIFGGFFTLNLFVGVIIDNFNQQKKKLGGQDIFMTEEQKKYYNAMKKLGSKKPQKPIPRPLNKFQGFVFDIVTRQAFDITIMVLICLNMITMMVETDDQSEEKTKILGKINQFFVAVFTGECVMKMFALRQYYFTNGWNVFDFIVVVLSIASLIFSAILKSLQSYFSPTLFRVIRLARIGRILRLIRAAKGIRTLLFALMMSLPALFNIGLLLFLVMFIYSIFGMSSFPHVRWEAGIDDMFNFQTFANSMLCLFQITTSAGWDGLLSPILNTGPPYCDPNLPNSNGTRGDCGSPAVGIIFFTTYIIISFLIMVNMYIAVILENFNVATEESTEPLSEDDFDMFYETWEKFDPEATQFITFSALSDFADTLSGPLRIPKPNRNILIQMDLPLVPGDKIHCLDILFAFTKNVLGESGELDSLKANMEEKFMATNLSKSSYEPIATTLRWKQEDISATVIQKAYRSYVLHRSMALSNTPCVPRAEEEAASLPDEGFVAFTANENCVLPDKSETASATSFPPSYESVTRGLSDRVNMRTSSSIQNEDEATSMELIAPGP

| Molecule | binding to Kv1.3 expressing cells (cell surface labeling) (Kv1.3 [1]) | labeling of WT cells [2] | competition with ShK-TAMRA binding (Kv1.3 [3]) | other results |
| --- | --- | --- | --- | --- |
| NC1=N[C@H](O)[C@H]2[C@H]3O[C@]4(O)O[C@@H]([C@@H](O)[C@@]2(N1)[C@@H]4O)[C@]3(O)CO [Tetrodotoxin] | – | – | – | channel activity following addition of blocker (Nav1.8): Activity was abolished |
| ShK-TAMRA | bound to Kv1.3 expressing cells | No labeling | – | – |
| Margatoxin (TIINVKCTSPKQCLPPCKAQFGQSAGAKCMNGKCKCYPH; ends and bridges not checked; cysteine pairing not given here; UniProt P40755 1-39, looked up) [MgTX] | – | – | competitive | – |
| Cc1c[nH]c(C)c1C(=O)O[C@@H](C)C1=CC[C@@]23OCCN(C)C[C@@]12C[C@@H](O)[C@]12O[C@]4(O)CC[C@@]1(C)[C@H](CC=C32)C4 [BTX, batrachatoxin] | – | – | – | channel activity following addition of activator (Nav1.8; Nav1.8 proteoliposomes, 10× NaCl chemical gradient, 0 mV holding potential, no conductance before addition): channel activity was detected; conductances (Nav1.8; after addition of BTX, 10× NaCl chemical gradient, 0 mV holding potential): 2-3 pA |
| Agitoxin-2-TAMRA [AgTX-2-TAMRA] | bound to Kv1.3 expressing cells | No labeling | – | – |
| Iberiotoxin (QFTDVDCSVSKECWSVCKDLFGVDRGKCMGKKCRCYQ; ends and bridges not checked; cysteine pairing not given here; UniProt P24663 1-37, looked up) [IbTX] | – | – | does not interfere with ShK-TAMRA binding | – |
